Measured values as given in US20250340551A1, “SMALL MOLECULE MODULATORS OF STAT6” (Gilead Sciences, Inc., priority 2024, published 2025).
pEC50: −log10 of the molar value.

System: Eotaxin-3 (CCL26) release in human whole blood stimulated with IL-4
Test: Human whole blood eotaxin-3 assay (IL-4 stimulated, Eotaxin-3 release)
Format: cell-based
Conditions: Homo sapiens, 48 h
Description: This was a human whole blood assay using recombinant human Interleukin 4 to stimulate the blood and measuring the ability of the test compounds to inhibit eotaxin-3 release. The biological activities of the test compounds have been tested in human whole blood stimulated with IL-4 measuring Eotaxin-3 release. The test compounds were added to 384 well clear flat-bottom plate in a 4-fold serial dilution in triplicates using a liquid handler. Human whole blood stabilized in lithium-heparin tubes was added in a volume of 65 μL per well, resulting in a final DMSO concentration of 0.5%. The plate is incubated for 2 h at 37° C. under 5% CO2/95% air. Subsequently, 5 μL of recombinant human IL-4 (R&D Systems, cat #204-ILB) was added to the wells to a final concentration of 400 pM. The plate was incubated for 48 h at 37° C. under 5% CO2/95% air. The plate was spun down for 10 minutes at 500×g and 20 μL supernatant was harvested and transferred to a 384 well v-bottom plate using a liquid handler and stored at −20° C. until further analysis. 10 μL supernatant was used to measure the level of Eotaxin-3 (CCL26) using Human Eotaxin-3 MSD kit from Mesocsale (Cat #K251UEK-4). The assay was performed according to the manufacture instructions.
The data from the human whole blood eotaxin-3 assay is shown below for Examples 1u2, 1x1, 1af26, and 1af36 (where the effect in % is plotted against the test concentration in M on a log-scale).

Q: Which Emax does the source give for `[2H]C([2H])([2H])N(C(=O)c1cnc(C2=CCN(Cc3cc4c(-c5ccc(N)nc5)ccnc4n3C)CC2)cn1)C([2H])([2H])[2H]` [Example 1af79, 5-(1-((4-(6-Aminopyridin-3-yl)-1-methyl-1H-pyrrolo[2,3-b]pyridin-2-yl)methyl)-1,2,3,6-tetrahydropyridin-4-yl)-N,N-bis(methyl-d3)pyrazine-2-carboxamide] here?
A: 20 to 30%

Q: How did the Emax turn out when `CNc1ccc(-c2ccnc3c2cc(CN2CC=C(c4ccc(C(=O)N(C)C)cn4)CC2)n3C)nn1` [Example 1p8, N,N-Dimethyl-6-[1-[[1-methyl-4-[6-(methylamino)pyridazin-3-yl]pyrrolo[2,3-b]pyridin-2-yl]methyl]-3,6-dihydro-2H-pyridin-4-yl]pyridine-3-carboxamide] was run?
A: < 20%

Q: How did the Emax turn out when `CNc1ccc(-c2ccnc3c2cc(CN2CCN(c4ccc(C(=O)N(C)C)cn4)CC2)n3C)nn1` [Example 1p9, N,N-Dimethyl-6-[4-[[1-methyl-4-[6-(methylamino)pyridazin-3-yl]pyrrolo[2,3-b]pyridin-2-yl]methyl]piperazin-1-yl]pyridine-3-carboxamide] was run?
A: < 20%

Q: For `CN(C)C(=O)c1ccc(C2=CCN(Cc3cc4c(-c5ccc(N)nc5)ccnc4n3C)CC2)nn1` [Example 1z3, 6-(1-((4-(6-aminopyridin-3-yl)-1-methyl-1H-pyrrolo[2,3-b]pyridin-2-yl)methyl)-1,2,3,6-tetrahydropyridin-4-yl)-N,N-dimethylpyridazine-3-carboxamide], which Emax is on record?
A: < 20%

Q: Which Emax does the source give for `[2H]C([2H])([2H])N(C(=O)c1ccc(C2=CCN(Cc3cc4c(-c5ccc(N)nc5)ccnc4n3C)CC2)nn1)C([2H])([2H])[2H]` [Example 1z4, 6-(1-((4-(6-aminopyridin-3-yl)-1-methyl-1H-pyrrolo[2,3-b]pyridin-2-yl)methyl)-1,2,3,6-tetrahydropyridin-4-yl)-N,N-bis(methyl-d3)pyridazine-3-carboxamide] here?
A: 20 to 30%

Q: How did the Emax turn out when `Cc1cc(C2=CCN(Cc3cc4c(-c5ccc(N)nc5)ccnc4n3C)CC2)ccc1C(=O)N(C)C` [Example 1z5, 4-(1-((4-(6-aminopyridin-3-yl)-1-methyl-1H-pyrrolo[2,3-b]pyridin-2-yl)methyl)-1,2,3,6-tetrahydropyridin-4-yl)-N,N,2-trimethylbenzamide] was run?
A: 30 to 40%

Same assay, conditions: Homo sapiens, Hec50, 48 h

Q: How did the pEC50 turn out when `Cc1cc(C(=O)N(C)C)cc(F)c1C1=CCN([C@@H](C)c2cc3c(-c4ccc(N)nn4)ccnc3n2C)CC1` [Example 1af80, (S)-4-(1-(1-(4-(6-aminopyridazin-3-yl)-1-methyl-1H-pyrrolo[2,3-b]pyridin-2-yl)ethyl)-1,2,3,6-tetrahydropyridin-4-yl)-3-fluoro-N,N,5-trimethylbenzamide] was run?
A: 7.94

Q: With `[2H]C([2H])([2H])N(C(=O)c1cc(C)c(C2=CCN([C@@H](C)c3cc4c(-c5ccc(N)nn5)ccnc4n3C)CC2)c(F)c1)C([2H])([2H])[2H]` [Example 1af81, (S)-4-(1-(1-(4-(6-aminopyridazin-3-yl)-1-methyl-1H-pyrrolo[2,3-b]pyridin-2-yl)ethyl)-1,2,3,6-tetrahydropyridin-4-yl)-3-fluoro-5-methyl-N,N-bis(methyl-d3)benzamide] as the compound, how does the pEC50 read?
A: 7.90

Q: With `CN(C)C(=O)c1ccc(C2CCN(Cc3cc4c(-c5ccc(N)c(C(=O)O)n5)ccnc4n3C)CC2)cc1` [Example 1k79, 3-Amino-6-[2-[[4-[4-(dimethylcarbamoyl)phenyl]-1-piperidyl]methyl]-1-methyl-pyrrolo[2,3-b]pyridin-4-yl]pyridine-2-carboxylic acid] as the compound, how does the pEC50 read?
A: 5.14

Q: `[2H]C([2H])([2H])N(C(=O)c1ccc(N2CCN(Cc3cc4c(-c5ccc(NC)nn5)ccnc4n3C)CC2)c(C)c1)C([2H])([2H])[2H]` [Example 1p4, 3-Methyl-4-[4-[[1-methyl-4-[6-(methylamino)pyridazin-3-yl]pyrrolo[2,3-b]pyridin-2-yl]methyl]piperazin-1-yl]-N,N-bis(trideuteriomethyl)benzamide] was tested. Which pEC50 did it give?
A: 4.88

Q: With `[2H]C([2H])([2H])N(C(=O)c1ccc(C2=CCN(Cc3cc4c(-c5ccc(NC)nn5)ccnc4n3C)CC2)c(C)c1)C([2H])([2H])[2H]` [Example 1p7, 3-Methyl-4-[1-[[1-methyl-4-[6-(methylamino)pyridazin-3-yl]pyrrolo[2,3-b]pyridin-2-yl]methyl]-3,6-dihydro-2H-pyridin-4-yl]-N,N-bis(trideuteriomethyl)benzamide] as the compound, how does the pEC50 read?
A: 6.30

Q: With `CNc1ccc(-c2ccnc3c2cc(CN2CC=C(c4c(C)cc(C(=O)N(C)C)cc4C)CC2)n3C)nn1` [Example 1p10, N,N,3,5-Tetramethyl-4-[1-[[1-methyl-4-[6-(methylamino)pyridazin-3-yl]pyrrolo[2,3-b]pyridin-2-yl]methyl]-3,6-dihydro-2H-pyridin-4-yl]benzamide] as the compound, how does the pEC50 read?
A: 6.62

Q: `CNc1ccc(-c2ccnc3c2cc(CN2CC=C(c4ncc(C(=O)N(C)C)cc4C)CC2)n3C)nn1` [Example 1p11, N,N,5-Trimethyl-6-[1-[[1-methyl-4-[6-(methylamino)pyridazin-3-yl]pyrrolo[2,3-b]pyridin-2-yl]methyl]-3,6-dihydro-2H-pyridin-4-yl]pyridine-3-carboxamide] was tested. Which pEC50 did it give?
A: 5.34

Q: How did the pEC50 turn out when `CNc1ccc(-c2ccnc3c2cc(CN2CC=C(c4ccc(C(=O)N(C)C)cc4OC)CC2)n3C)nn1` [Example 1p14, 3-Methoxy-N,N-dimethyl-4-[1-[[1-methyl-4-[6-(methylamino)pyridazin-3-yl]pyrrolo[2,3-b]pyridin-2-yl]methyl]-3,6-dihydro-2H-pyridin-4-yl]benzamide] was run?
A: 5.49

Q: How did the pEC50 turn out when `CNc1ccc(-c2ccnc3c2cc(CN2CC=C(c4ccc(C(=O)N(C)C)cc4C(F)(F)F)CC2)n3C)nn1` [Example 1p15, N,N-Dimethyl-4-[1-[[1-methyl-4-[6-(methylamino)pyridazin-3-yl]pyrrolo[2,3-b]pyridin-2-yl]methyl]-3,6-dihydro-2H-pyridin-4-yl]-3-(trifluoromethyl)benzamide] was run?
A: 5.82

Q: With `CNc1ccc(-c2ccnc3c2cc(CN2CC=C(c4c(C)cc(C(=O)N(C)C)cc4F)CC2)n3C)nn1` [Example 1p17, 3-Fluoro-N,N,5-trimethyl-4-[1-[[1-methyl-4-[6-(methylamino)pyridazin-3-yl]pyrrolo[2,3-b]pyridin-2-yl]methyl]-3,6-dihydro-2H-pyridin-4-yl]benzamide] as the compound, how does the pEC50 read?
A: 7.03

Q: With `CNc1ccc(-c2ccnc3c2cc(CN2CC=C(c4ccc(C(=O)N(C)C)cc4Cl)CC2)n3C)nn1` [Example 1p18, 3-Chloro-N,N-dimethyl-4-[1-[[1-methyl-4-[6-(methylamino)pyridazin-3-yl]pyrrolo[2,3-b]pyridin-2-yl]methyl]-3,6-dihydro-2H-pyridin-4-yl]benzamide] as the compound, how does the pEC50 read?
A: 5.77

Q: With `CNc1ccc(-c2ccnc3c2cc(CN2CC=C(c4c(F)cc(C(=O)N(C)C)cc4Cl)CC2)n3C)nn1` [Example 1p20, 3-Chloro-5-fluoro-N,N-dimethyl-4-[1-[[1-methyl-4-[6-(methylamino)pyridazin-3-yl]pyrrolo[2,3-b]pyridin-2-yl]methyl]-3,6-dihydro-2H-pyridin-4-yl]benzamide] as the compound, how does the pEC50 read?
A: 6.67

Q: `CN(C)C(=O)c1ccc(C2=CCN(Cc3cc4c(-c5ccc(N)nn5)ccnc4n3C)CC2)cc1` [Example 1z1, 4-(1-((4-(6-aminopyridazin-3-yl)-1-methyl-1H-pyrrolo[2,3-b]pyridin-2-yl)methyl)-1,2,3,6-tetrahydropyridin-4-yl)-N,N-dimethylbenzamide] was tested. Which pEC50 did it give?
A: 8.24
